The results in this text go back to patent publication US9586961B2, “Homopiperazine derivatives as protein tyrosine kinase inhibitors and pharmaceutical use thereof” (LEO PHARMA A/S, priority 2010, dated 2017).

Type in all cases: biochemical
In one test the target is T1, JAK3 (Homo sapiens, UniProt P52333).
T1 construct: All four purified enzymes contain only the catalytic domain; His (N); purchased Carna Biosciences, Inc; host or cells: baculovirus expression system
As to the kind of experiment: JAK3 kinase assay (HTRF, inhibition of phosphorylation of a synthetic peptide). The conditions noted are these: catalytic domain, His-tag; 2 μM ATP (Km); read-out: JAK3 kinase inhibitory activity (EC50). In outline: (§1)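 Baculovirus-expressed human catalytic domains (GST-JAK1, GST-TYK2, His-JAK2, His-JAK3) phosphorylated 1 μM TK substrate-biotin at ATP Km (JAK1 7 μM, JAK2 4 μM, JAK3 2 μM, TYK2 13 μM) in pH 7.0 Hepes for 20-30 min at RT, 0.75% DMSO. EDTA stop, then overnight streptavidin-XL665/cryptate-antibody detection and HTRF read.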
A general note: In TR-FRET formats the signal depends on donor and acceptor labels being close together.

The target of the next test is T2, JAK2 (Homo sapiens, UniProt O60674).
T2 construct: All four purified enzymes contain only the catalytic domain; His (N); purchased Carna Biosciences, Inc; host or cells: baculovirus expression system
As to the kind of experiment: JAK2 kinase assay (HTRF, inhibition of phosphorylation of a synthetic peptide). The conditions noted are these: catalytic domain, His-tag; 4 μM ATP (Km); read-out: JAK2 kinase inhibitory activity (EC50). The procedure, abridged:
as §1

For a further test, the target named is T3, JAK1 (Homo sapiens, UniProt P23458).
T3 construct: JAK1 (aa 850-1154) and TYK2 (aa 871-1187) are expressed with an N-terminally fused GST-tag; GST (N); purchased Carna Biosciences, Inc; host or cells: baculovirus expression system
Put plainly: JAK1 kinase assay (HTRF, inhibition of phosphorylation of a synthetic peptide). Conditions: catalytic domain aa 850-1154, GST-tag; 7 μM ATP (Km); read-out: JAK1 kinase inhibitory activity (EC50). The procedure, abridged:
as §1

By EC50 is commonly meant the concentration needed to bring the measured effect to its halfway point.

T2 sequence (O60674 849-1124 limits assumed): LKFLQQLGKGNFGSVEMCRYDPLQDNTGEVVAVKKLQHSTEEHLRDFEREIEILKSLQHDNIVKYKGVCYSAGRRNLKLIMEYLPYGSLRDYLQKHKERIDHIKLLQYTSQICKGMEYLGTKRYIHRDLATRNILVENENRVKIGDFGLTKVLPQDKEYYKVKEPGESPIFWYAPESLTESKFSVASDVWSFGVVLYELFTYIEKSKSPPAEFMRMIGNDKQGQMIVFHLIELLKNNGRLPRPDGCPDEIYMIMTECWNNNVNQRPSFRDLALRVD
T3 sequence (P23458 850-1154): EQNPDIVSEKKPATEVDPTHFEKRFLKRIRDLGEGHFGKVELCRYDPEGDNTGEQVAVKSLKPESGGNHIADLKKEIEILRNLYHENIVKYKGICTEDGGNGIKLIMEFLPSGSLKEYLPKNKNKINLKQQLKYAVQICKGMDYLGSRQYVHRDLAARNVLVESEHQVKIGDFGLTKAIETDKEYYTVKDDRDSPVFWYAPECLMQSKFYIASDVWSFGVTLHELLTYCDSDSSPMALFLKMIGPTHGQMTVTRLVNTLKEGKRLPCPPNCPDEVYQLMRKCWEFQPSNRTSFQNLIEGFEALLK
T1 sequence (P52333 822-1111 limits assumed): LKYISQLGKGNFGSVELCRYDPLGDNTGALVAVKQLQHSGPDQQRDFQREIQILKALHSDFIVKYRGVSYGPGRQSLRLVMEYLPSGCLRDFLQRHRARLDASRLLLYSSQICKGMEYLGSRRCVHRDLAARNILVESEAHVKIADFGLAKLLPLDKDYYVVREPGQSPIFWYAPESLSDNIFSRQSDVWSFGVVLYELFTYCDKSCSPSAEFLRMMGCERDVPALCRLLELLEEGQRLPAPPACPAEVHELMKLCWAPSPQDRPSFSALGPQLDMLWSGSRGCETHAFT

For the compound `O=C(Cc1ccccc1Cl)N1CCCN(c2ncnc3[nH]ccc23)CC12CC2` [Example 174, 2-(2-chlorophenyl)-1-[5-(7H-pyrrolo[2,3-d]pyrimidin-4-yl)-5,9-diazaspiro[2.6]nonan-9-yl]ethanone], the EC50 on JAK3 is above 1000 nM; at JAK2 it was 100 to 1000 nM; on JAK1, 100 to 1000 nM.
Consider `Cc1cc(C(=O)N2CCN(c3ncnc4[nH]ccc34)CC3(CC3)C2)no1` [Example 175, (5-methylisoxazol-3-yl)-[5-(7H-pyrrolo[2,3-d]pyrimidin-4-yl)-5,8-diazaspiro[2.6]nonan-8-yl]methanone], for which the EC50 at JAK3, on JAK2 and at JAK1 was 100 to 1000 nM throughout.
As to `O=C(c1ccc(Cl)cc1)N1CCN(c2ncnc3[nH]ccc23)CC2(CC2)C1` [Example 176, (4-chlorophenyl)-[5-(7H-pyrrolo[2,3-d]pyrimidin-4-yl)-5,8-diazaspiro[2.6]nonan-8-yl]methanone], the figures for the EC50 on JAK3, at JAK2 and on JAK1 were 100 to 1000 nM, below 100 nM and 100 to 1000 nM, respectively.
For `O=C(c1ccno1)N1CCN(c2ncnc3[nH]ccc23)CC2(CC2)C1` [Example 177, isoxazol-5-yl-[5-(7H-pyrrolo[2,3-d]pyrimidin-4-yl)-5,8-diazaspiro[2.6]nonan-8-yl]methanone], the EC50 on JAK3, at JAK2 and at JAK1 was 100 to 1000 nM in each case.
On to `O=C(c1ccccc1Cl)N1CCCN(c2ncnc3[nH]ccc23)CC12CC2` [Example 178, (2-chlorophenyl)-[5-(7H-pyrrolo[2,3-d]pyrimidin-4-yl)-5,9-diazaspiro[2.6]nonan-9-yl]methanone], for which the values for the EC50 on JAK3, at JAK2 and at JAK1 were above 1000 nM, 100 to 1000 nM and 100 to 1000 nM, respectively.
Regarding `O=C(c1cccc(Cl)c1)N1CCCN(c2ncnc3[nH]ccc23)CC12CC2` [Example 179, (3-chlorophenyl)-[5-(7H-pyrrolo[2,3-d]pyrimidin-4-yl)-5,9-diazaspiro[2.6]nonan-9-yl]methanone], the figures for the EC50 at JAK3, on JAK2 and on JAK1 were 100 to 1000 nM, below 100 nM and 100 to 1000 nM, respectively.
Take `O=C(c1ccc(Cl)cc1)N1CCCN(c2ncnc3[nH]ccc23)CC12CC2` [Example 180, (4-chlorophenyl)-[5-(7H-pyrrolo[2,3-d]pyrimidin-4-yl)-5,9-diazaspiro[2.6]nonan-9-yl]methanone]: the EC50 on JAK3 is 100 to 1000 nM; at JAK2, below 100 nM; on JAK1, below 100 nM.
Turning to `O=C(c1ccno1)N1CCCN(c2ncnc3[nH]ccc23)CC12CC2` [Example 181, isoxazol-5-yl-[5-(7H-pyrrolo[2,3-d]pyrimidin-4-yl)-5,9-diazaspiro[2.6]nonan-9-yl]methanone], the values for the EC50 at JAK3, at JAK2 and on JAK1 were 100 to 1000 nM, below 100 nM and below 100 nM, respectively.
For `O=C(c1cc[nH]n1)N1CCN(c2ncnc3[nH]ccc23)CC2(CC2)C1` [Example 182, 1H-pyrazol-3-yl-[5-(7H-pyrrolo[2,3-d]pyrimidin-4-yl)-5,8-diazaspiro[2.6]nonan-8-yl]methanone], the EC50 on JAK3, on JAK2 and on JAK1 was 100 to 1000 nM each time.
On to `O=C(c1cc[nH]n1)N1CCCN(c2ncnc3[nH]ccc23)CC12CC2` [Example 183, 1H-pyrazol-3-yl-[5-(7H-pyrrolo[2,3-d]pyrimidin-4-yl)-5,9-diazaspiro[2.6]nonan-9-yl]methanone], for which the EC50 at JAK3, at JAK2 and at JAK1 was 100 to 1000 nM throughout.
In the case of `Cc1cc(CC(=O)N2CCN(c3ncnc4[nH]ccc34)CC3(CC3)C2)on1` [Example 184, 2-(3-methylisoxazol-5-yl)-1-[5-(7H-pyrrolo[2,3-d]pyrimidin-4-yl)-5,8-diazaspiro[2.6]nonan-8-yl]ethanone], the EC50 at JAK3 was 100 to 1000 nM; at JAK2, below 100 nM; on JAK1 it was below 100 nM.
Take `O=C(c1ccccc1Cl)N1CCN(c2ncnc3[nH]ccc23)CC2(CC2)C1` [Example 185, (2-chlorophenyl)-[5-(7H-pyrrolo[2,3-d]pyrimidin-4-yl)-5,8-diazaspiro[2.6]nonan-8-yl]methanone]: the EC50 was above 1000 nM at JAK3, 100 to 1000 nM at JAK2 and 100 to 1000 nM on JAK1.
`O=C(c1cccc(Cl)c1)N1CCN(c2ncnc3[nH]ccc23)CC2(CC2)C1` [Example 186, (3-chlorophenyl)-[5-(7H-pyrrolo[2,3-d]pyrimidin-4-yl)-5,8-diazaspiro[2.6]nonan-8-yl]methanone]: the EC50 at JAK3 is above 1000 nM; on JAK2, 100 to 1000 nM; at JAK1 it was 100 to 1000 nM.
On to `Cc1oncc1C(=O)N1CCCN(c2ncnc3[nH]ccc23)CC12CC2` [Example 187, (5-methylisoxazol-4-yl)-[5-(7H-pyrrolo[2,3-d]pyrimidin-4-yl)-5,9-diazaspiro[2.6]nonan-9-yl]methanone], for which the EC50 at JAK3, on JAK2 and at JAK1 was 100 to 1000 nM throughout.
Consider `O=C(c1ccccn1)N1CCN(c2ncnc3[nH]ccc23)CC2(CC2)C1` [Example 188, 2-pyridyl-[5-(7H-pyrrolo[2,3-d]pyrimidin-4-yl)-5,8-diazaspiro[2.6]nonan-8-yl]methanone], for which the values for the EC50 at JAK3, on JAK2 and on JAK1 were above 1000 nM, 100 to 1000 nM and above 1000 nM, respectively.
Turning to `O=C(c1ccccn1)N1CCCN(c2ncnc3[nH]ccc23)CC12CC2` [Example 189, 2-pyridyl-[5-(7H-pyrrolo[2,3-d]pyrimidin-4-yl)-5,9-diazaspiro[2.6]nonan-9-yl]methanone], the results for the EC50 on JAK3, on JAK2 and on JAK1 were above 1000 nM, below 100 nM and 100 to 1000 nM, respectively.
For `O=C(c1ccnc(O)c1)N1CCN(c2ncnc3[nH]ccc23)CC2(CC2)C1` [Example 190, (2-hydroxy-4-pyridyl)-[5-(7H-pyrrolo[2,3-d]pyrimidin-4-yl)-5,8-diazaspiro[2.6]nonan-8-yl]methanone], in that order: above 1000 nM, 100 to 1000 nM and 100 to 1000 nM.
With `Cc1ncoc1C(=O)N1CCN(c2ncnc3[nH]ccc23)CC2(CC2)C1` [Example 191, (4-methyloxazol-5-yl)-[5-(7H-pyrrolo[2,3-d]pyrimidin-4-yl)-5,8-diazaspiro[2.6]nonan-8-yl]methanone], the EC50 was above 1000 nM at JAK3, 100 to 1000 nM at JAK2 and 100 to 1000 nM on JAK1.
In the case of `Cc1ncoc1C(=O)N1CCCN(c2ncnc3[nH]ccc23)CC12CC2` [Example 192, (4-methyloxazol-5-yl)-[5-(7H-pyrrolo[2,3-d]pyrimidin-4-yl)-5,9-diazaspiro[2.6]nonan-9-yl]methanone], the EC50 at JAK3, at JAK2 and at JAK1 was 100 to 1000 nM throughout.
For `Cc1cc(C(=O)N2CCCN(c3ncnc4[nH]ccc34)CC23CC3)n(C)n1` [Example 193, (2,5-dimethylpyrazol-3-yl)-[5-(7H-pyrrolo[2,3-d]pyrimidin-4-yl)-5,9-diazaspiro[2.6]nonan-9-yl]methanone], the EC50 on JAK3 is above 1000 nM; on JAK2, below 100 nM; on JAK1 it was 100 to 1000 nM.
In the case of `Cc1nnc(C(=O)N2CCN(c3ncnc4[nH]ccc34)CC3(CC3)C2)o1` [Example 194, (5-methyl-1,3,4-oxadiazol-2-yl)-[5-(7H-pyrrolo[2,3-d]pyrimidin-4-yl)-5,8-diazaspiro[2.6]nonan-8-yl]methanone], the EC50 was above 1000 nM at JAK3, 100 to 1000 nM at JAK2 and 100 to 1000 nM on JAK1.
For `O=C(c1nc[nH]n1)N1CCN(c2ncnc3[nH]ccc23)CC2(CC2)C1` [Example 195, [5-(7H-pyrrolo[2,3-d]pyrimidin-4-yl)-5,8-diazaspiro[2.6]nonan-8-yl]-(1H-1,2,4-triazol-3-yl)methanone], the EC50 at JAK3 is above 1000 nM; on JAK2 it was 100 to 1000 nM; on JAK1 it was 100 to 1000 nM.
As for `Cc1cnc(C(=O)N2CCN(c3ncnc4[nH]ccc34)CC3(CC3)C2)cn1` [Example 196, (5-methylpyrazin-2-yl)-[5-(7H-pyrrolo[2,3-d]pyrimidin-4-yl)-5,8-diazaspiro[2.6]nonan-8-yl]methanone], the EC50 on JAK3, at JAK2 and on JAK1 was above 1000 nM each time.
Take `Cc1cnc(C(=O)N2CCCN(c3ncnc4[nH]ccc34)CC23CC3)cn1` [Example 197, (5-methylpyrazin-2-yl)-[5-(7H-pyrrolo[2,3-d]pyrimidin-4-yl)-5,9-diazaspiro[2.6]nonan-9-yl]methanone]: the EC50 at JAK3 is above 1000 nM; on JAK2 it was 100 to 1000 nM; at JAK1 it was 100 to 1000 nM.
Regarding `Cc1cncc(C(=O)N2CCCN(c3ncnc4[nH]ccc34)CC23CC3)n1` [Example 198, (6-methylpyrazin-2-yl)-[5-(7H-pyrrolo[2,3-d]pyrimidin-4-yl)-5,9-diazaspiro[2.6]nonan-9-yl]methanone], the EC50 at JAK3 is above 1000 nM; on JAK2, 100 to 1000 nM; on JAK1 it was 100 to 1000 nM.
As to `Cc1noc(C)c1C(=O)N1CCCN(c2ncnc3[nH]ccc23)CC12CC2` [Example 199, (3,5-dimethylisoxazol-4-yl)-[5-(7H-pyrrolo[2,3-d]pyrimidin-4-yl)-5,9-diazaspiro[2.6]nonan-9-yl]methanone], the EC50 on JAK3, on JAK2 and at JAK1 was above 1000 nM each time.
